Consider one compound from patent publication US20110135738A1, “SINGLE DOSAGE PHARMACEUTICAL FORMULATION COMPRISING EPROSARTAN MESYLATE” (LEK Pharmaceutical S. D. D., priority 2008, published 2011).

Series [1] is described as follows: Flowability of powder / final mixture. The series is classed as physicochemical. The note with it: drug per se.
Series [2] can be described thus: X-ray diffraction analysis of eprosartan mesylate form / physical stability. Conditions: ambient temperature and humidity. The series is classed as physicochemical. The procedure:
During the dry granulation processes using different excipients from the list above, physical stability of the eprosartan mesylate anhydrate was investigated. […] The final tablet form and placebo powder were analyzed by X-ray diffraction (XRD) pattern to confirm presence of anhydrous form of eprosartan mesylate.
Diffractograms were collected on X′Pert PRO MPD diffractometer using CuKα radiation.
Data were recorded from 2 do 40° 2θ; in steps of 0.033° 2θ; with the integration times 50 s (routine testing) and from 4 do 20° 2θ; in steps of 0.033° 2θ; with the integration times 2000 s (to achieve lower LOD). The range for measurements with longer integration times was chosen according to the known diffractograms of eprosartan mesylate crystalline forms, which all have characteristic peaks in the carefully measured range between 4 and 20° 2theta.

For series [3] the following is noted: at RH over 60%; cited from earlier work.
For series [4] the following is noted: cited from earlier work.
The conditions of series [5]: oral; cited from earlier work.

The term bioavailability denotes dose-corrected exposure relative to a reference, in per cent.

As for `CCCCc1ncc(/C=C(\Cc2cccs2)C(=O)O)n1Cc1ccc(C(=O)O)cc1.CS(=O)(=O)O` [Eprosartan mesylate, (E)-α-[2-n-butyl-1-[(4-carboxyphenyl)methyl]-1H-imidazol-5-yl]methylene-2-thiophenepropionic acid monomethanesulfonate], in series [1], the “flowability of eprosartan mesylate” value is on record as “below 0.15 g/sec”. For the same compound, the “physical and chemical stability of anhydrous form” value in series [2] was “physically and chemically stable”. The “interconversion of anhydrous form” value in series [3] is “interconverts to eprosartan mesylate mono- and later to dihydrate”. For the same compound, the “permeability across the intestinal epithelium” value in series [4] is on record as “low permeability”. The bioavailability in series [5] was 13%.
